Reference: patent US20110166123A1, “NOVEL COMPOSITIONS AND METHODS OF USE” (priority 2008, published 2011)

System: human immunodeficiency virus type 1 (HIV-1)
Test: microbe, parasite or virus in culture
Assay type: cell-based
Conditions: Human immunodeficiency virus 1, HeLa, 48 h, HIV-1 luciferase reporter, HeLa cells, 48 hours after infection

**Q.** For `CCOc1nc2c(cc1NCc1ccc(F)cc1)c(=O)c(C(=O)O)cn2[C@H](CO)C(C)C` [Example 27A, (S)-7-Ethoxy-6-(4-fluorobenzylamino)-1-(1-hydroxy-3-methylbutan-2-yl)-4-oxo-1,4-dihydro-1,8-naphthyridine-3-carboxylic acid], which EC50 is on record?
**A.** > 100 nM

**Q.** With `CCCC[C@@H](CO)n1cc(C(=O)O)c(=O)c2cc(Cc3cccc(Cl)c3F)ncc21` [Example 5J] as the compound, how does the EC50 read?
**A.** > 100 nM

**Q.** With `COc1nc2c(cc1NCc1cc(F)cc(F)c1F)c(=O)c(C(=O)O)cn2[C@H](CO)C(C)C` [Example 20FF, (S)-1-(1-hydroxy-3-methylbutan-2-yl)-7-methoxy-4-oxo-6-(2,3,5-trifluorobenzylamino)-1,4-dihydro-1,8-naphthyridine-3-carboxylic acid] as the compound, how does the EC50 read?
**A.** > 100 nM

**Q.** For `COc1nc2c(cc1NCc1ccc(C)cc1)c(=O)c(C(=O)O)cn2[C@H](CO)C(C)C` [Example 20A, (S)-1-(1-hydroxy-3-methylbutan-2-yl)-7-methoxy-6-(4-methylbenzylamino)-4-oxo-1,4-dihydro-1,8-naphthyridine-3-carboxylic acid], which EC50 is on record?
**A.** > 100 nM

**Q.** With `CC(C)(C)[C@@H](CO)n1cc(C(=O)O)c(=O)c2cc(Cc3cccc(Cl)c3F)c(NCCCO)nc21` [Example 2S] as the compound, how does the EC50 read?
**A.** 10 to 100 nM

**Q.** How did the EC50 turn out when `COc1nc2c(cc1NCc1ccc(C(F)(F)F)cc1)c(=O)c(C(=O)O)cn2[C@H](CO)C(C)C` [Example 20Y, (S)-1-(1-hydroxy-3-methylbutan-2-yl)-7-methoxy-4-oxo-6-(4-(trifluoromethyl)benzylamino)-1,4-dihydro-1,8-naphthyridine-3-carboxylic acid] was run?
**A.** > 100 nM

**Q.** How did the EC50 turn out when `COCCCOc1nc2c(cc1Cc1cccc(Cl)c1F)c(=O)c(C(=O)O)cn2[C@H](CO)C(C)(C)C` [Example 2I] was run?
**A.** 10 to 100 nM

**Q.** With `COc1ccc(-c2cc3c(=O)c(C(=O)O)cn([C@H](CO)C(C)C)c3nc2OC)cn1` [Example 17H] as the compound, how does the EC50 read?
**A.** > 100 nM

**Q.** Which EC50 does the source give for `COc1cc2c(cc1OCc1c(F)cc(F)cc1F)c(=O)c(C(=O)O)cn2[C@H](CO)C(C)(C)C` [Example 29B, (S)-1-(1-hydroxy-3,3-dimethylbutan-2-yl)-7-methoxy-4-oxo-6-(2,4,6-trifluorobenzyloxy)-1,4-dihydroquinoline-3-carboxylic acid] here?
**A.** 10 to 100 nM

**Q.** With `Cc1cc2c(cc1NCc1c(F)cc(F)cc1F)c(=O)c(C(=O)O)cn2[C@H](CO)C(C)(C)C` [Example 25D, (S)-1-(1-hydroxy-3,3-dimethylbutan-2-yl)-7-methyl-4-oxo-6-(2,4,6-trifluorobenzylamino)-1,4-dihydroquinoline-3-carboxylic acid] as the compound, how does the EC50 read?
**A.** < 10 nM

**Q.** With `COc1nc2c(cc1-c1ccc(Cl)c(F)c1)c(=O)c(C(=O)O)cn2[C@H](CO)C(C)C` [Example 17B] as the compound, how does the EC50 read?
**A.** > 100 nM

**Q.** Which EC50 does the source give for `COc1nc2c(cc1NCc1ccc(Cl)c(F)c1)c(=O)c(C(=O)O)cn2[C@H](CO)C(C)C` [Example 20H, (S)-6-(4-chloro-3-fluorobenzylamino)-1-(1-hydroxy-3-methylbutan-2-yl)-7-methoxy-4-oxo-1,4-dihydro-1,8-naphthyridine-3-carboxylic acid] here?
**A.** > 100 nM

**Q.** With `CC(C)[C@@H](CO)n1cc(C(=O)O)c(=O)c2cc(Cc3cccc(Cl)c3F)nnc21` [Example 6, 3-(3-chloro-2-fluorobenzyl)-8-(1-hydroxy-3-methylbutan-2-yl)-5-oxo-5,8-dihydropyrido[2,3-c]pyridazine-6-carboxylic acid] as the compound, how does the EC50 read?
**A.** > 100 nM

**Q.** For `CCC(C)[C@@H](CO)n1cc(C(=O)O)c(=O)c2cc(Cc3cccc(Cl)c3F)c(OC)nc21` (some centres unmarked) [Example 1G], which EC50 is on record?
**A.** < 10 nM

**Q.** `CC(C)[C@@H](CO)n1cc(C(=O)O)c(=O)c2nc(Cc3cccc(Cl)c3F)ccc21` [Example 8A, 6-(3-Chloro-2-fluoro-benzyl)-1-((S)-1-hydroxymethyl-2-methyl-propyl)-4-oxo-1,4-dihydro-[1,5]naphthyridine-3-carboxylic acid] was tested. Which EC50 did it give?
**A.** > 100 nM

**Q.** `COc1cc2c(cc1CCc1ccc(F)cc1F)c(=O)c(C(=O)O)cn2[C@H](CO)C(C)(C)C` [Example 18A, 6-[2-(2,4-Difluoro-phenyl)-ethyl]-1-((S)-1-hydroxymethyl-2,2-dimethyl-propyl)-7-methoxy-4-oxo-1,4-dihydro-quinoline-3-carboxylic acid] was tested. Which EC50 did it give?
**A.** > 100 nM

**Q.** Which EC50 does the source give for `CC(C)(C)[C@@H](CO)n1cc(C(=O)O)c(=O)c2cc(Cc3cccc(Cl)c3F)c(NCCCn3ccnc3)nc21` [Example 2GG] here?
**A.** 10 to 100 nM

**Q.** With `Cc1nc2c(cc1Cc1cccc(Cl)c1F)c(=O)c(C(=O)O)cn2[C@H](CO)C(C)(C)C` [Example 3B, 6-(3-Chloro-2-fluorobenzyl)-1-((S)-1-hydroxymethyl-2,2-dimethyl-propyl)-7-methyl-4-oxo-1,4-dihydro-1,8-naphthyridine-3-carboxylic acid] as the compound, how does the EC50 read?
**A.** 10 to 100 nM

**Q.** `COc1nc2c(cc1CN1CCc3ccccc3C1)c(=O)c(C(=O)O)cn2[C@H](CO)C(C)C` [Example 12H] was tested. Which EC50 did it give?
**A.** > 100 nM

**Q.** Which EC50 does the source give for `CN(C)CCOc1nc2c(cc1Cc1cccc(Cl)c1F)c(=O)c(C(=O)O)cn2[C@H](CO)C(C)(C)C` [Example 2K] here?
**A.** 10 to 100 nM

**Q.** How did the EC50 turn out when `COc1nc2c(cc1NCc1cccc(Cl)c1Cl)c(=O)c(C(=O)O)cn2[C@H](CO)C(C)C` [Example 20L, (S)-6-(2,3-dichlorobenzylamino)-1-(1-hydroxy-3-methylbutan-2-yl)-7-methoxy-4-oxo-1,4-dihydro-1,8-naphthyridine-3-carboxylic acid] was run?
**A.** > 100 nM

**Q.** How did the EC50 turn out when `CC(C)(C)[C@@H](CO)n1cc(C(=O)O)c(=O)c2cc(Cc3cccc(Cl)c3F)c(NCCCN3CCOCC3)nc21` [Example 2DD] was run?
**A.** < 10 nM

**Q.** `COc1nc2c(cc1Cc1cccc(Cl)c1F)c(=O)c(C(=O)O)cn2C[C@H](O)c1ccccc1` [Example 1Q] was tested. Which EC50 did it give?
**A.** > 100 nM

**Q.** `COc1nc2c(cc1-c1ccc(F)c(Cl)c1)c(=O)c(C(=O)O)cn2[C@H](CO)C(C)C` [Example 17D] was tested. Which EC50 did it give?
**A.** > 100 nM

**Q.** With `COc1nc2c(cc1NCc1ccc(F)c(F)c1)c(=O)c(C(=O)O)cn2[C@H](CO)C(C)C` [Example 20N, (S)-6-(3,4-difluorobenzylamino)-1-(1-hydroxy-3-methylbutan-2-yl)-7-methoxy-4-oxo-1,4-dihydro-1,8-naphthyridine-3-carboxylic acid] as the compound, how does the EC50 read?
**A.** > 100 nM

**Q.** With `CC(C)(C)[C@@H](CO)n1cc(C(=O)O)c(=O)c2cc(Cc3cccc(Cl)c3F)c(O)nc21` [Example 2B, (S)-6-(3-chloro-2-fluorobenzyl)-7-hydroxy-1-(1-hydroxy-3,3-dimethylbutan-2-yl)-4-oxo-1,4-dihydro-1,8-naphthyridine-3-carboxylic acid] as the compound, how does the EC50 read?
**A.** 10 to 100 nM

**Q.** Which EC50 does the source give for `CC(C)(C)[C@@H](CO)n1cc(C(=O)O)c(=O)c2cc(Cc3cccc(Cl)c3F)c(OCc3cccnc3)nc21` [Example 2N] here?
**A.** < 10 nM

**Q.** `CC(C)[C@@H](CO)n1cc(C(=O)O)c(=O)c2cc(Cc3cccc(Cl)c3F)cnc21` [Example 4A, (S)-6-(3-chloro-2-fluorobenzyl)-1-(1-hydroxy-3-methylbutan-2-yl)-4-oxo-1,4-dihydro-1,8-naphthyridine-3-carboxylic acid] was tested. Which EC50 did it give?
**A.** 10 to 100 nM

**Q.** How did the EC50 turn out when `COc1nc2c(cc1NCc1ccccc1F)c(=O)c(C(=O)O)cn2[C@H](CO)C(C)C` [Example 20D, (S)-6-(2-fluorobenzylamino)-1-(1-hydroxy-3-methylbutan-2-yl)-7-methoxy-4-oxo-1,4-dihydro-1,8-naphthyridine-3-carboxylic acid] was run?
**A.** 10 to 100 nM

**Q.** For `COc1nc2c(cc1NCc1cc(F)cc(F)c1)c(=O)c(C(=O)O)cn2[C@H](CO)C(C)C` [Example 20HH, (S)-6-(3,5-difluorobenzylamino)-1-(1-hydroxy-3-methylbutan-2-yl)-7-methoxy-4-oxo-1,4-dihydro-1,8-naphthyridine-3-carboxylic acid], which EC50 is on record?
**A.** > 100 nM

**Q.** With `COc1nc2c(cc1Nc1ccc(F)c(Cl)c1)c(=O)c(C(=O)O)cn2[C@H](CO)C(C)C` [Example 20RR, (S)-6-(3-chloro-4-fluorophenylamino)-1-(1-hydroxy-3-methylbutan-2-yl)-7-methoxy-4-oxo-1,4-dihydro-1,8-naphthyridine-3-carboxylic acid] as the compound, how does the EC50 read?
**A.** > 100 nM

**Q.** Which EC50 does the source give for `CC(C)Oc1nc2c(cc1Cc1cccc(Cl)c1F)c(=O)c(C(=O)O)cn2[C@H](CO)C(C)(C)C` [Example 2D] here?
**A.** 10 to 100 nM

**Q.** With `COc1nc2c(cc1COc1c(F)cc(F)cc1F)c(=O)c(C(=O)O)cn2[C@H](CO)C(C)C` [Example 14A, (S)-1-(1-hydroxy-3-methylbutan-2-yl)-7-methoxy-4-oxo-6-((2,4,6-trifluorophenoxy)methyl)-1,4-dihydro-1,8-naphthyridine-3-carboxylic acid] as the compound, how does the EC50 read?
**A.** > 100 nM

**Q.** `COc1ccc(COc2cc3c(=O)c(C(=O)O)cn([C@H](CO)C(C)(C)C)c3cc2OC)cc1` [Example 29E, (S)-1-(1-hydroxy-3,3-dimethylbutan-2-yl)-7-methoxy-6-(4-methoxybenzyloxy)-4-oxo-1,4-dihydroquinoline-3-carboxylic acid] was tested. Which EC50 did it give?
**A.** > 100 nM

**Q.** With `COCCN1CCN(c2nc3c(cc2Cc2cccc(Cl)c2F)c(=O)c(C(=O)O)cn3[C@H](CO)C(C)(C)C)CC1` [Example 2AA] as the compound, how does the EC50 read?
**A.** 10 to 100 nM

**Q.** Which EC50 does the source give for `COc1nc2c(cc1COc1ccc(F)cc1F)c(=O)c(C(=O)O)cn2[C@H](CO)C(C)C` [Example 14B] here?
**A.** > 100 nM

**Q.** How did the EC50 turn out when `COc1cc2c(cc1NCc1c(F)cccc1F)c(=O)c(C(=O)O)cn2[C@H](CO)C(C)C` [Example 21C, (S)-6-(2,6-difluorobenzylamino)-1-(1-hydroxy-3-methylbutan-2-yl)-7-methoxy-4-oxo-1,4-dihydroquinoline-3-carboxylic acid] was run?
**A.** 10 to 100 nM

**Q.** Which EC50 does the source give for `O=C(O)c1cn(CCO)c2ncc(Cc3cccc(Cl)c3Cl)cc2c1=O` [Example 4E] here?
**A.** > 100 nM

**Q.** With `COc1nc2c(cc1NCc1c(F)ccc(F)c1F)c(=O)c(C(=O)O)cn2[C@H](CO)C(C)C` [Example 20GG, (S)-1-(1-hydroxy-3-methylbutan-2-yl)-7-methoxy-4-oxo-6-(2,3,6-trifluorobenzylamino)-1,4-dihydro-1,8-naphthyridine-3-carboxylic acid] as the compound, how does the EC50 read?
**A.** 10 to 100 nM

**Q.** Which EC50 does the source give for `COc1nc2c(cc1Cc1cccc(Cl)c1F)c(=O)c(C(=O)O)cn2[C@H](CO)CC(C)C` [Example 1K] here?
**A.** < 10 nM

Same assay, conditions: Human immunodeficiency virus 1, HeLa, HIV-1 luciferase reporter, HeLa cells

**Q.** With `COc1nc2c(cc1COc1c(F)cc(F)cc1F)c(=O)c(C(=O)O)cn2[C@H](CO)C(C)C` [Example 14A, (S)-1-(1-hydroxy-3-methylbutan-2-yl)-7-methoxy-4-oxo-6-((2,4,6-trifluorophenoxy)methyl)-1,4-dihydro-1,8-naphthyridine-3-carboxylic acid] as the compound, how does the EC50 read?
**A.** > 2500 nM

**Q.** With `COc1nc2c(cc1COc1ccc(F)cc1F)c(=O)c(C(=O)O)cn2[C@H](CO)C(C)C` [Example 14B] as the compound, how does the EC50 read?
**A.** > 2500 nM

Same assay, conditions: Human immunodeficiency virus 1, read-out: Rank, rank of EC50, HIV-1 luciferase reporter

**Q.** How did the EC50 turn out when `COc1nc2c(cc1COc1c(F)cc(F)cc1F)c(=O)c(C(=O)O)cn2[C@H](CO)C(C)C` [Example 14A, (S)-1-(1-hydroxy-3-methylbutan-2-yl)-7-methoxy-4-oxo-6-((2,4,6-trifluorophenoxy)methyl)-1,4-dihydro-1,8-naphthyridine-3-carboxylic acid] was run?
**A.** > 100 nM

**Q.** With `COc1nc2c(cc1COc1ccc(F)cc1F)c(=O)c(C(=O)O)cn2[C@H](CO)C(C)C` [Example 14B] as the compound, how does the EC50 read?
**A.** > 100 nM
